This is an account of results in paper PMC12136037, “Type II kinase inhibitors that target Parkinson’s disease–associated LRRK2” (Science Advances, 2025).

Common to all, as to experiment: DSF 100 kinase selectivity screen;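 on dTm: compound tested at 20 µM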
Common to all, as to type: binding

Assay [1] deals with T1, ~100 representative kinases (Homo sapiens, UniProt Q92630).
T1 construct: Recombinant protein kinase domains with a concentration of 2 μM
T1 sequence (Q92630 1-601): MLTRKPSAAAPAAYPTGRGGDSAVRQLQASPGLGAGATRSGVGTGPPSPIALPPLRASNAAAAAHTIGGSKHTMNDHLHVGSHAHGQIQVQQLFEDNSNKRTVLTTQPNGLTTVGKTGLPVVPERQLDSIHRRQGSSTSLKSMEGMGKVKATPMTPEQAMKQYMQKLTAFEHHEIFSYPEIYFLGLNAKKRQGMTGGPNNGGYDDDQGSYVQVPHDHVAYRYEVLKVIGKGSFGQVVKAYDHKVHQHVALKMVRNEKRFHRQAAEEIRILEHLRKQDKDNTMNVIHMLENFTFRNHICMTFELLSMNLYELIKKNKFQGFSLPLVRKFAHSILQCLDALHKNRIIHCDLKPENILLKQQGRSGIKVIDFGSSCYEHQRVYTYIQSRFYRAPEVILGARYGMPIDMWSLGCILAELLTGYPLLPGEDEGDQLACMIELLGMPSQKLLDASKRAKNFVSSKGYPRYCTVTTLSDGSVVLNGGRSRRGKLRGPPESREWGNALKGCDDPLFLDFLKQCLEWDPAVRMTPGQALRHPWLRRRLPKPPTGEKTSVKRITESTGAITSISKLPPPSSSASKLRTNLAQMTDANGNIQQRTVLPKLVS
The note with it: Protein DYRK2; average of three replicates. How it is done:
(§1) Recombinant protein kinase domains with a concentration of 2 μM were mixed with a 20 μM compound solution in dimethyl sulfoxide (DMSO), 20 mM Hepes (pH 7.5), and 500 mM NaCl. SYPRO Orange (5000×, Invitrogen) was added as a fluorescence probe (1μl/ml). Subsequently, temperature-dependent protein unfolding profiles were measured using the QuantStudio 5 realtime PCR machine (Thermo Fisher Scientific, Waltham, MA, USA). […] The temperature was raised with a step rate of 3°C/min. […] Differences in melting temperature are given as ΔTm values in degrees Celsius. […]

The subject of assay [2] is ~100 representative kinases. The note with it: for dTm: Protein BRD, average of three replicates. As to the method: as §1
Assay [3] concerns the target T2, ~100 representative kinases (Homo sapiens, UniProt Q00532).
T2 construct: Recombinant protein kinase domains with a concentration of 2 μM
The following applies: Protein CDKL1; average of three replicates. How it is done: as §1

Assay [4] concerns the target T3, ~100 representative kinases (Homo sapiens, UniProt Q96PY6).
T3 construct: Recombinant protein kinase domains with a concentration of 2 μM
T3 sequence (Q96PY6 1-1258): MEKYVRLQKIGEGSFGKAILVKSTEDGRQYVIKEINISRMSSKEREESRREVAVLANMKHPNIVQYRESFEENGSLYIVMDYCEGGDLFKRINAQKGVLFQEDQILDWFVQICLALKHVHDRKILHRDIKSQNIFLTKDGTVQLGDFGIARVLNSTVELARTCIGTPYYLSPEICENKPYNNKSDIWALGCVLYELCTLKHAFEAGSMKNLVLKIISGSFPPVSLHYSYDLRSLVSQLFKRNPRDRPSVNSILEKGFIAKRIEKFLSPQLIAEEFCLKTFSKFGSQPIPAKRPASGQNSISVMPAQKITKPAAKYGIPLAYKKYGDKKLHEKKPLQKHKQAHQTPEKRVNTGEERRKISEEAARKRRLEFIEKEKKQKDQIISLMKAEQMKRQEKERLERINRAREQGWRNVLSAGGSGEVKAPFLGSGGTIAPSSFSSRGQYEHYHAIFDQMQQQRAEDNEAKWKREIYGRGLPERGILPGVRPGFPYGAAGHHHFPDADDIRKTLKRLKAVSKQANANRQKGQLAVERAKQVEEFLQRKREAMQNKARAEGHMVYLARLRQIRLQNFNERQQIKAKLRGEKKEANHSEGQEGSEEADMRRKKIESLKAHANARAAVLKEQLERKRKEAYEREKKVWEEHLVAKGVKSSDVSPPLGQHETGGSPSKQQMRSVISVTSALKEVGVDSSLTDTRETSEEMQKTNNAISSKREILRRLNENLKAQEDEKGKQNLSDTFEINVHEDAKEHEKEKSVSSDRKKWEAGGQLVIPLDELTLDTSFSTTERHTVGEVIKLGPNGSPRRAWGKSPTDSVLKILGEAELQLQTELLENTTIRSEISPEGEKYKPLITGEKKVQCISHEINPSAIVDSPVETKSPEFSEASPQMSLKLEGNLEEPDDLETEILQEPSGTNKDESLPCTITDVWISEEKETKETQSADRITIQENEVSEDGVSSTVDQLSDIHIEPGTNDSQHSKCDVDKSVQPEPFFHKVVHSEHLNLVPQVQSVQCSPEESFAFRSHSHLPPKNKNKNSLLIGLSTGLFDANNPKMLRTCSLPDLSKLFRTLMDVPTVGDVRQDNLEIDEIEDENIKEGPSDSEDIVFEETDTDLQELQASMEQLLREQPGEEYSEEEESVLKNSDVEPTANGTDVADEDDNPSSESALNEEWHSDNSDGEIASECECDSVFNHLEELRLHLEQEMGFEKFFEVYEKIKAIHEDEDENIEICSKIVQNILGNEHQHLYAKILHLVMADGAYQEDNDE
The note with it: protein NEK1; average of three replicates. How it is done:
as §1

The mark [5] stands for this setting: number of kinases with thermal shift >5 K divided by total number of kinases screened.
[6] abbreviates: number of proteins of the DSF panel with dTm >5K.
The mark [7] stands for this setting: selectivity score: # >5K divided by # of proteins tested in the DSF panel.

SMILES strings stand for the structures. Like-named read-outs stand apart in the source and are kept apart here.

T2 sequence (Q00532 whole entry, the tested form may be a part): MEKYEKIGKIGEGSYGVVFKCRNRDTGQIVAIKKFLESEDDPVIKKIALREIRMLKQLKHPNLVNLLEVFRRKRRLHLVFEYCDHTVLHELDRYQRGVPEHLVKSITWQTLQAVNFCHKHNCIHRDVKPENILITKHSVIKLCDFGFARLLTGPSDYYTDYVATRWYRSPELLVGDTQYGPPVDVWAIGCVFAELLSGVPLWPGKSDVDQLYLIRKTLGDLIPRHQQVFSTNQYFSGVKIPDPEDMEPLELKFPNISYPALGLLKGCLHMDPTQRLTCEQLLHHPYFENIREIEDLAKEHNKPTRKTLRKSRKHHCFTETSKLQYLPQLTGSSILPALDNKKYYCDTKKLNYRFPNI

On to `Cc1ccc(C(=O)Nc2ccc(CN3CCN(C)CC3)c(C(F)(F)F)c2)cc1C#Cc1c[nH]c2ncnc(N3CCOCC3)c12` [Compound 1], for which the dTm in assay [1] is listed as 3.91 K; in assay [2], 0.03 K; in assay [3], 3.12 K; in assay [4], -0.11 K. Further, the “S(5K)” value in assay [2] (setting [5]) amounted to 0.20; in assay [2] (setting [7]), 0.200. In addition, the “# >5K” value in assay [2] (setting [6]) came to 21.

Take `O=C(Nc1ccc(F)cc1)C1(C(=O)Nc2cccc(-c3c[nH]c4ncnc(N5CCOCC5)c34)c2)CC1` [Compound 2]: the dTm was 7.92 K in assay [1], -1.00 K in assay [2], 2.59 K in assay [3] and -0.21 K in assay [4]. The “S(5K)” value in assay [2] (setting [5]) is recorded as 0.28; in assay [2] (setting [7]), 0.280. In assay [2] (setting [6]), the “# >5K” value is reported as 28.

On to `O=C(Nc1cccc(-c2c[nH]c3ncnc(N4CCOCC4)c23)c1)c1cccn(-c2ccc(F)cc2)c1=O` [Compound 4], for which the dTm in assay [1] was 6.24 K; in assay [2] it was -1.99 K; in assay [3], 5.10 K; in assay [4] it was -0.47 K. The entries for the “S(5K)” value in assay [2] (setting [5]) and in assay [2] (setting [7]) were 0.33 and 0.330, respectively. Also, in assay [2] (setting [6]), the “# >5K” value turned out to be 33.

For `Cc1cc(NC(=O)C2(C(=O)Nc3ccc(F)cc3)CC2)cc(-c2c[nH]c3ncnc(N4CCOCC4)c23)c1` [Compound 6], the dTm in assay [1] is reported as 5.04 K; in assay [2] it was 0.73 K; in assay [3], 0.62 K; in assay [4], -0.00237 K. In addition, the figures for the “S(5K)” value in assay [2] (setting [5]) and in assay [2] (setting [7]) were 0.13 and 0.125, respectively. The “# >5K” value in assay [2] (setting [6]) was 13.

For the compound `O=C(Nc1cccc(-c2c[nH]c3ncnc(N4CCOCC4)c23)c1)C1(C(=O)Nc2cccc3c2CCC3)CC1` [Compound 11], the dTm in assay [1] is given as 4.30 K; in assay [2], 1.00 K; in assay [3], 3.41 K; in assay [4] it was -2.39 K. For the same compound, the “S(5K)” value worked out at 0.15 in assay [2] (setting [5]) and 0.154 in assay [2] (setting [7]). Further, the “# >5K” value in assay [2] (setting [6]) was found to be 16.

Take `O=C(Nc1ccccc1)C1(C(=O)Nc2cccc(-c3c[nH]c4ncnc(N5CCOCC5)c34)c2)CC1` [Compound 12]: the dTm in assay [1] is 6.15 K; in assay [2] it was -0.35 K; in assay [3], 3.09 K; in assay [4] it was 0.33 K. In addition, the “S(5K)” value in assay [2] (setting [5]) was found to be 0.26; in assay [2] (setting [7]), 0.260. The “# >5K” value in assay [2] (setting [6]) amounted to 26.

As to `O=C(Nc1ccc(Cl)cc1)C1(C(=O)Nc2cccc(-c3c[nH]c4ncnc(N5CCOCC5)c34)c2)CC1` [Compound 13], the dTm in assay [1] is listed as 9.27 K; in assay [2], 1.19 K; in assay [3], 3.38 K; in assay [4] it was 0.54 K. The “S(5K)” value in assay [2] (setting [5]) was found to be 0.37; in assay [2] (setting [7]), 0.370. Besides, in assay [2] (setting [6]), the “# >5K” value stood at 37.

Turning to `Cc1ccc(NC(=O)C2(C(=O)Nc3cccc(-c4c[nH]c5ncnc(N6CCOCC6)c45)c3)CC2)cc1` [Compound 14], the dTm in assay [1] is 6.23 K; in assay [2] it was -1.11 K; in assay [3], 1.85 K; in assay [4], 0.23 K. For the same compound, the “S(5K)” value was 0.22 in assay [2] (setting [5]) and 0.220 in assay [2] (setting [7]). Besides, in assay [2] (setting [6]), the “# >5K” value is 22.

For `CCc1ccc(NC(=O)C2(C(=O)Nc3cccc(-c4c[nH]c5ncnc(N6CCOCC6)c45)c3)CC2)cc1` [Compound 15], the dTm in assay [1] is 4.76 K; in assay [2], -2.47 K; in assay [3], 2.19 K; in assay [4] it was 0.19 K. Besides, the entries for the “S(5K)” value in assay [2] (setting [5]) and in assay [2] (setting [7]) were 0.23 and 0.230, respectively. Also, the “# >5K” value in assay [2] (setting [6]) was found to be 23.

Consider `COc1ccc(NC(=O)C2(C(=O)Nc3cccc(-c4c[nH]c5ncnc(N6CCOCC6)c45)c3)CC2)cc1` [Compound 16], for which the dTm in assay [1] was 3.09 K; in assay [2], -2.19 K; in assay [3] it was 1.33 K; in assay [4] it was 0.34 K. The “S(5K)” value in assay [2] (setting [5]) was determined as 0.10; in assay [2] (setting [7]), 0.100. Further, the “# >5K” value in assay [2] (setting [6]) is on record as 10.

In the case of `O=C(Nc1cccc(-c2c[nH]c3ncnc(N4CCOCC4)c23)c1)C1(C(=O)Nc2ccc(F)c(F)c2)CC1` [Compound 17], the dTm in assay [1] was found to be 7.75 K; in assay [2] it was 0.26 K; in assay [3] it was 2.59 K; in assay [4], 0.29 K. Besides, the “S(5K)” value in assay [2] (setting [5]) was 0.32; in assay [2] (setting [7]), 0.320. For the same compound, the “# >5K” value in assay [2] (setting [6]) amounted to 32.

With `O=C(Nc1cccc(-c2c[nH]c3ncnc(N4CCOCC4)c23)c1)C1(C(=O)Nc2ccc(F)c(Cl)c2)CC1` [Compound 18], the dTm in assay [1] is given as 9.51 K; in assay [2] it was 0.45 K; in assay [3] it was 3.38 K; in assay [4], -0.32 K. In addition, the entries for the “S(5K)” value in assay [2] (setting [5]) and in assay [2] (setting [7]) were 0.36 and 0.360, respectively. The “# >5K” value in assay [2] (setting [6]) worked out at 36.

For the compound `O=C(Nc1cccc(-c2c[nH]c3ncnc(N4CCOCC4)c23)c1)C1(C(=O)Nc2ccc(F)c(Br)c2)CC1` [Compound 19], the dTm is reported as 3.42 K in assay [1], 1.82 K in assay [2], 4.06 K in assay [3] and -0.89 K in assay [4]. Further, the “S(5K)” value in assay [2] (setting [5]) is 0.31; in assay [2] (setting [7]), 0.308. Further, the “# >5K” value in assay [2] (setting [6]) is on record as 32.

On to `Cc1cc(NC(=O)C2(C(=O)Nc3cccc(-c4c[nH]c5ncnc(N6CCOCC6)c45)c3)CC2)ccc1F` [Compound 20], for which the dTm in assay [1] is on record as 10.73 K; in assay [2] it was -0.20 K; in assay [3] it was 5.67 K; in assay [4] it was -0.05 K. Also, the “S(5K)” value in assay [2] (setting [5]) worked out at 0.42; in assay [2] (setting [7]), 0.420. Besides, the “# >5K” value in assay [2] (setting [6]) is listed as 42.

As to `Cc1ccc(C(=O)Nc2ccc(CN3CCN(C)CC3)c(C(F)(F)F)c2)cc1C#Cc1cnc2cccnn12` [Ponatinib, reference compound], in assay [2], the “# >5K” value is 28 and the “S(5K)” value is 0.272. Moreover, the dTm in assay [4] was 0.42 K.

As to `CNC(=O)c1cc(Oc2ccc(NC(=O)Nc3cc(C(C)(C)C)nn3-c3ccc4ncccc4c3)c(F)c2)ccn1` [Rebastinib, reference compound], the figures for the dTm in assay [1], in assay [3] and in assay [4] were 6.14 K, 5.33 K and 2.10 K, respectively.
